From patent US20100267798A1, “PHARMACEUTICAL FORMULATIONS AND USE THEREOF IN THE PREVENTION OF STROKE, DIABETES AND/OR CONGESTIVE HEART FAILURE” (AVENTS PHARMA DEUTSCHLAND GMBH, priority 1999, published 2010)

Tested on: participants at high risk for cardiovascular events
Experiment: Large-scale clinical trial of ramipril versus placebo in reducing cardiovascular events
Type: in vivo, human
Description: A large-scale clinical trial was designed to examine the effect of the ACE inhibitor ramipril versus placebo in reducing cardiovascular events.
The study was conducted in 267 centres in 19 countries over a six year period and included 9,541 participants who are at high risk for cardiovascular events due to a history of previous ischaemic heart disease, stroke, peripheral arterial disease or individuals with diabetes.
The systolic blood pressure at inclusion of the patients was on average 138 mm Hg and thus the patients were normotensive at study start. After one month of therapy with either ramipril or placebo, the systolic blood pressure had decreased by 5.48 mm Hg and 1.59 mm Hg, respectively.
The primary endpoint of the study was myocardial infarction (MI), stroke and cardiovascular (CV) death (mortality).

Structure (SMILES): CCOC(=O)[C@H](CCc1ccccc1)N[C@@H](C)C(=O)N1[C@H](C(=O)O)C[C@@H]2CCC[C@@H]21 [ramipril]
- decrease in systolic blood pressure (after one month of therapy, normotensive patients, on average 138 mm Hg at inclusion): 5.48 mm Hg
- reduction in the need for revascularisation procedures and diabetic complications (patients taking ramipril versus placebo): between a fourth and a fifth
- reduction in the combined endpoint of cardiovascular deaths, heart attacks and strokes (patients taking ramipril, study stopped early): very clear reduction
- reduction in the number of patients who developed diabetes (ramipril group versus placebo): 36%
- reduction in the number of patients who developed CHF (ramipril group versus placebo, no signs or symptoms of CHF at study start): 21%
- reduction in the number of patients who developed a stroke (ramipril group versus placebo, patients normotensive when recruited): 32%
